Results taken from US20230017045A1, “PYRIDINE AND PYRIMIDINE CARBOXYLATE HERBICIDES AND METHODS OF USE THEREOF” (Dow AgroSciences LLC, priority 2017, published 2023).

The compounds below were run on test plant species (assay: Post-emergent herbicidal activity test (greenhouse, foliar spray, visual growth reduction)). Settings: post-emergence, 336 h, ECHCG: barnyardgrass (Echinochloa crus-galli), 140 g ai/ha, 14 days after application, read-out: Visual Growth Reduction (%) 14 Days After Application, ECHCG.
Format: in vivo
Method: Post-emergent Test: Seeds or nutlets of the desired test plant species were planted in Sun Gro Metro-Mix® 360 planting mixture, which typically has a pH of 6.0 to 6.8 and an organic matter content of about 30 percent, in plastic pots with a surface area of 64 square centimeters. In some aspects, to ensure good germination and healthy plants, a fungicide treatment and/or other chemical or physical treatment was applied. The plants were grown for 7-21 d in a greenhouse with an approximate 15 h photoperiod which was maintained at 23-29° C. during the day and 22-28° C. during the night. Nutrients and water were added on a regular basis and supplemental lighting was provided with overhead metal halide 1000-Watt lamps as necessary. Plants were used for testing when they reached the first or second true leaf stage. A weighed amount, determined by the highest rate to be tested, of each test compound was placed in a 25 mL glass vial and was dissolved in 4 mL of a 97:3 v/v mixture of acetone and DMSO to obtain concentrated stock solutions. […] The concentrated stock solutions obtained were diluted with 20 mL of an aqueous mixture containing acetone, water, isopropyl alcohol, DMSO, […] crop oil concentrate, and X-77 surfactant in a 48.5:39:10:1.5:1.0:0.02 v/v ratio to obtain spray solutions containing the application rate. Compound requirements are based upon a 12 mL application volume at a rate of 187 liters per hectare (L/ha). Formulated compounds were applied to the plant material with an overhead Mandel track sprayer equipped with […] nozzles calibrated to deliver 187 L/ha over an application area of 0.64 square meters at a spray height of 18 inches (43 cm) above the average plant canopy height. Control plants were sprayed in the same manner with the solvent blank. The treated plants and control plants were placed in a greenhouse as described above and watered by subirrigation to prevent wash-off of the test compounds. After 14 d, the condition of the test plants as compared with that of the nontreated and control plants was determined visually and scored on a scale of 0 to 100 percent where 0 corresponds to no injury and 100 corresponds to complete control. In the reporting of the results, Table A: Percent Growth Reduction Conversion Table was used.
In the case of `COC(=O)c1nc(-c2ccc(C(F)(F)F)c(N)c2Cl)ccc1Cl` [F212, Methyl 6-(3-amino-2-chloro-4-(trifluoromethyl)phenyl)-3-chloropicolinate], the pest or weed control at 140 g/ha is reported as 75 to 84%. For `COC(=O)c1nc(-c2cc(C)c(C(F)(F)F)cc2F)ccc1Cl` [F361, Methyl 3-chloro-6-(2-fluoro-5-methyl-4-(trifluoromethyl)phenyl)picolinate], the pest or weed control at 140 g/ha was 0 to 29%.

Same assay, conditions: post-emergence, 336 h, IPOHE: ivy-leaf morning glory (Ipomoea hederacea), 140 g ai/ha, 14 days after application, read-out: Visual Growth Reduction (%) 14 Days After Application, IPOHE
Compound `COC(=O)c1nc(-c2ccc(C(F)(F)F)c(N)c2Cl)ccc1Cl` [F212, Methyl 6-(3-amino-2-chloro-4-(trifluoromethyl)phenyl)-3-chloropicolinate] has a pest or weed control at 140 g/ha of 95 to 100%. In the case of `COC(=O)c1nc(-c2cc(C)c(C(F)(F)F)cc2F)ccc1Cl` [F361, Methyl 3-chloro-6-(2-fluoro-5-methyl-4-(trifluoromethyl)phenyl)picolinate], the pest or weed control at 140 g/ha is reported as 75 to 84%.

Same assay, conditions: post-emergence, 336 h, KCHSC: kochia (Bassia scoparia), 140 g ai/ha, 14 days after application, read-out: Visual Growth Reduction (%) 14 Days After Application, KCHSC
With `COC(=O)c1nc(-c2ccc(C(F)(F)F)c(N)c2Cl)ccc1Cl` [F212, Methyl 6-(3-amino-2-chloro-4-(trifluoromethyl)phenyl)-3-chloropicolinate] the pest or weed control at 140 g/ha was 60 to 74%. `COC(=O)c1nc(-c2cc(C)c(C(F)(F)F)cc2F)ccc1Cl` [F361, Methyl 3-chloro-6-(2-fluoro-5-methyl-4-(trifluoromethyl)phenyl)picolinate] gave a pest or weed control at 140 g/ha of 0 to 29%.

Same assay, conditions: post-emergence, 336 h, ORYSA: rice (Oryza sativa), 140 g ai/ha, 14 days after application, read-out: Visual Growth Reduction (%) 14 Days After Application, ORYSA
With `COC(=O)c1nc(-c2ccc(C(F)(F)F)c(N)c2Cl)ccc1Cl` [F212, Methyl 6-(3-amino-2-chloro-4-(trifluoromethyl)phenyl)-3-chloropicolinate] the pest or weed control at 140 g/ha was 0 to 29%. Work on `COC(=O)c1nc(-c2cc(C)c(C(F)(F)F)cc2F)ccc1Cl` [F361, Methyl 3-chloro-6-(2-fluoro-5-methyl-4-(trifluoromethyl)phenyl)picolinate] yielded a pest or weed control at 140 g/ha of 0 to 29%.

Same assay, conditions: post-emergence, 336 h, SETFA: giant foxtail (Setaria faberi), 140 g ai/ha, 14 days after application, read-out: Visual Growth Reduction (%) 14 Days After Application, SETFA
`COC(=O)c1nc(-c2ccc(C(F)(F)F)c(N)c2Cl)ccc1Cl` [F212, Methyl 6-(3-amino-2-chloro-4-(trifluoromethyl)phenyl)-3-chloropicolinate] showed a pest or weed control at 140 g/ha of 60 to 74%. `COC(=O)c1nc(-c2cc(C)c(C(F)(F)F)cc2F)ccc1Cl` [F361, Methyl 3-chloro-6-(2-fluoro-5-methyl-4-(trifluoromethyl)phenyl)picolinate] was tested, and the pest or weed control at 140 g/ha was 0 to 29%.

Same assay, conditions: post-emergence, 336 h, SORVU: grain sorghum (Sorghum vulgare), 140 g ai/ha, 14 days after application, read-out: Visual Growth Reduction (%) 14 Days After Application, SORVU
With `COC(=O)c1nc(-c2ccc(C(F)(F)F)c(N)c2Cl)ccc1Cl` [F212, Methyl 6-(3-amino-2-chloro-4-(trifluoromethyl)phenyl)-3-chloropicolinate] the pest or weed control at 140 g/ha was 60 to 74%. With `COC(=O)c1nc(-c2cc(C)c(C(F)(F)F)cc2F)ccc1Cl` [F361, Methyl 3-chloro-6-(2-fluoro-5-methyl-4-(trifluoromethyl)phenyl)picolinate] the pest or weed control at 140 g/ha was 0 to 29%.

Same assay, conditions: post-emergence, 336 h, STEME: common chickweed (Stellaria media), 140 g ai/ha, 14 days after application, read-out: Visual Growth Reduction (%) 14 Days After Application, STEME
Compound `COC(=O)c1nc(-c2ccc(C(F)(F)F)c(N)c2Cl)ccc1Cl` [F212, Methyl 6-(3-amino-2-chloro-4-(trifluoromethyl)phenyl)-3-chloropicolinate] has a pest or weed control at 140 g/ha of 0 to 29%. With `COC(=O)c1nc(-c2cc(C)c(C(F)(F)F)cc2F)ccc1Cl` [F361, Methyl 3-chloro-6-(2-fluoro-5-methyl-4-(trifluoromethyl)phenyl)picolinate] the pest or weed control at 140 g/ha was 0 to 29%.

Same assay, conditions: post-emergence, 336 h, TRZAS: wheat, spring (Triticum aestivum), 140 g ai/ha, 14 days after application, read-out: Visual Growth Reduction (%) 14 Days After Application, TRZAS
`COC(=O)c1nc(-c2ccc(C(F)(F)F)c(N)c2Cl)ccc1Cl` [F212, Methyl 6-(3-amino-2-chloro-4-(trifluoromethyl)phenyl)-3-chloropicolinate] gave a pest or weed control at 140 g/ha of 0 to 29%. For `COC(=O)c1nc(-c2cc(C)c(C(F)(F)F)cc2F)ccc1Cl` [F361, Methyl 3-chloro-6-(2-fluoro-5-methyl-4-(trifluoromethyl)phenyl)picolinate], the pest or weed control at 140 g/ha was 0 to 29%.

Same assay, conditions: post-emergence, 336 h, blackgrass (Alopecurus myosuroides), 14 Days After Application, 140 g ai/ha, read-out: Visual Growth Reduction (%) ALOMY
Compound `COC(=O)c1nc(-c2ccc(C(F)(F)F)c(N)c2Cl)ccc1Cl` [F212, Methyl 6-(3-amino-2-chloro-4-(trifluoromethyl)phenyl)-3-chloropicolinate] has a pest or weed control at 140 g/ha of 0 to 29%. `COC(=O)c1nc(-c2cc(C)c(C(F)(F)F)cc2F)ccc1Cl` [F361, Methyl 3-chloro-6-(2-fluoro-5-methyl-4-(trifluoromethyl)phenyl)picolinate] was tested, and the pest or weed control at 140 g/ha was 0 to 29%.

Same assay, conditions: post-emergence, 336 h, canada thistle (Cirsium arvense), 14 Days After Application, 140 g ai/ha, read-out: Visual Growth Reduction (%) CIRAR
`COC(=O)c1nc(-c2ccc(C(F)(F)F)c(N)c2Cl)ccc1Cl` [F212, Methyl 6-(3-amino-2-chloro-4-(trifluoromethyl)phenyl)-3-chloropicolinate] showed a pest or weed control at 140 g/ha of 85 to 94%. Work on `COC(=O)c1nc(-c2cc(C)c(C(F)(F)F)cc2F)ccc1Cl` [F361, Methyl 3-chloro-6-(2-fluoro-5-methyl-4-(trifluoromethyl)phenyl)picolinate] yielded a pest or weed control at 140 g/ha of 0 to 29%.

Same assay, conditions: post-emergence, 336 h, crabgrass (Digitaria sanguinalis), 14 Days After Application, 140 g ai/ha, read-out: Visual Growth Reduction (%) DIGSA
With `COC(=O)c1nc(-c2ccc(C(F)(F)F)c(N)c2Cl)ccc1Cl` [F212, Methyl 6-(3-amino-2-chloro-4-(trifluoromethyl)phenyl)-3-chloropicolinate] the pest or weed control at 140 g/ha was 30 to 44%. With `COC(=O)c1nc(-c2cc(C)c(C(F)(F)F)cc2F)ccc1Cl` [F361, Methyl 3-chloro-6-(2-fluoro-5-methyl-4-(trifluoromethyl)phenyl)picolinate] the pest or weed control at 140 g/ha was 0 to 29%.

Same assay, conditions: post-emergence, 336 h, lambsquarters (Chenopodium album), 14 Days After Application, 140 g ai/ha, read-out: Visual Growth Reduction (%) CHEAL
Work on `COC(=O)c1nc(-c2ccc(C(F)(F)F)c(N)c2Cl)ccc1Cl` [F212, Methyl 6-(3-amino-2-chloro-4-(trifluoromethyl)phenyl)-3-chloropicolinate] yielded a pest or weed control at 140 g/ha of 95 to 100%. `COC(=O)c1nc(-c2cc(C)c(C(F)(F)F)cc2F)ccc1Cl` [F361, Methyl 3-chloro-6-(2-fluoro-5-methyl-4-(trifluoromethyl)phenyl)picolinate] showed a pest or weed control at 140 g/ha of 85 to 94%.

Same assay, conditions: post-emergence, 336 h, redroot pigweed (Amaranthus retroflexus), 14 Days After Application, 140 g ai/ha, read-out: Visual Growth Reduction (%) AMARE
For `COC(=O)c1nc(-c2ccc(C(F)(F)F)c(N)c2Cl)ccc1Cl` [F212, Methyl 6-(3-amino-2-chloro-4-(trifluoromethyl)phenyl)-3-chloropicolinate], the pest or weed control at 140 g/ha was 60 to 74%. Work on `COC(=O)c1nc(-c2cc(C)c(C(F)(F)F)cc2F)ccc1Cl` [F361, Methyl 3-chloro-6-(2-fluoro-5-methyl-4-(trifluoromethyl)phenyl)picolinate] yielded a pest or weed control at 140 g/ha of 45 to 59%.

Same assay, conditions: post-emergence, 336 h, wild oat (Avena fatua), 14 Days After Application, 140 g ai/ha, read-out: Visual Growth Reduction (%) AVEFA
`COC(=O)c1nc(-c2ccc(C(F)(F)F)c(N)c2Cl)ccc1Cl` [F212, Methyl 6-(3-amino-2-chloro-4-(trifluoromethyl)phenyl)-3-chloropicolinate] showed a pest or weed control at 140 g/ha of 0 to 29%. Compound `COC(=O)c1nc(-c2cc(C)c(C(F)(F)F)cc2F)ccc1Cl` [F361, Methyl 3-chloro-6-(2-fluoro-5-methyl-4-(trifluoromethyl)phenyl)picolinate] has a pest or weed control at 140 g/ha of 0 to 29%.

Same assay, conditions: post-emergence, 336 h, yellow nutsedge (Cyperus esculentus), 14 Days After Application, 140 g ai/ha, read-out: Visual Growth Reduction (%) CYPES
Compound `COC(=O)c1nc(-c2ccc(C(F)(F)F)c(N)c2Cl)ccc1Cl` [F212, Methyl 6-(3-amino-2-chloro-4-(trifluoromethyl)phenyl)-3-chloropicolinate] has a pest or weed control at 140 g/ha of 0 to 29%. `COC(=O)c1nc(-c2cc(C)c(C(F)(F)F)cc2F)ccc1Cl` [F361, Methyl 3-chloro-6-(2-fluoro-5-methyl-4-(trifluoromethyl)phenyl)picolinate] gave a pest or weed control at 140 g/ha of 0 to 29%.
